Test results published in ChEMBL document CHEMBL5463727, “Data for DCP probe SGK3-PROTAC1” (2023).
The source made the active and inactive calls. The calls are words filed in the database; no cut-off is given here.

How the values were obtained:
[1] = biological target: Ribosomal protein S6 kinase alpha-3 (Homo sapiens) (UniProt P51812); test: % Activity remaining of RSK2 in the Dundee kinase panel at 1.0 µM; conditions: Compound concentration 1.0 uM
[2] = biological target: Mitogen-activated protein kinase 14 (Homo sapiens) (UniProt Q16539); test: % Activity remaining of p38 alpha MAPK in the Dundee kinase panel at 1.0 µM; conditions: Compound concentration 1.0 uM
[3] = biological target: Receptor tyrosine-protein kinase erbB-4 (Homo sapiens) (UniProt Q15303); test: % Activity remaining of HER4 in the Dundee kinase panel at 1.0 µM; conditions: Compound concentration 1.0 uM
[4] = biological target: Glycogen synthase kinase-3 beta (Homo sapiens) (UniProt P49841); test: % Activity remaining of GSK3 beta in the Dundee kinase panel at 1.0 µM; conditions: Compound concentration 1.0 uM
[5] = biological target: Insulin receptor (Homo sapiens) (UniProt P06213); test: % Activity remaining of IR in the Dundee kinase panel at 1.0 µM; conditions: Compound concentration 1.0 uM
[6] = biological target: Protein-tyrosine kinase 6 (Homo sapiens) (UniProt Q13882); test: % Activity remaining of BRK in the Dundee kinase panel at 1.0 µM; conditions: Compound concentration 1.0 uM
[7] = biological target: Mitogen-activated protein kinase 15 (Homo sapiens) (UniProt Q8TD08); test: % Activity remaining of ERK8 in the Dundee kinase panel at 1.0 µM; conditions: Compound concentration 1.0 uM
[8] = biological target: Tau-tubulin kinase 1 (Homo sapiens) (UniProt Q5TCY1); test: % Activity remaining of TTBK1 in the Dundee kinase panel at 1.0 µM; conditions: Compound concentration 1.0 uM
[9] = biological target: Mitogen-activated protein kinase kinase kinase kinase 2 (Homo sapiens) (UniProt Q12851); test: % Activity remaining of GCK in the Dundee kinase panel at 1.0 µM; conditions: Compound concentration 1.0 uM
[10] = biological target: MAP kinase-interacting serine/threonine-protein kinase 1 (Homo sapiens) (UniProt Q9BUB5); test: % Activity remaining of MNK1 in the Dundee kinase panel at 1.0 µM; conditions: Compound concentration 1.0 uM
[11] = biological target: Dual specificity mitogen-activated protein kinase kinase 6 (Homo sapiens) (UniProt P52564); test: % Activity remaining of MKK6 in the Dundee kinase panel at 1.0 µM; conditions: Compound concentration 1.0 uM
[12] = biological target: Serine/threonine-protein kinase PAK 4 (Homo sapiens) (UniProt O96013); test: % Activity remaining of PAK4 in the Dundee kinase panel at 1.0 µM; conditions: Compound concentration 1.0 uM
[13] = biological target: Tyrosine-protein kinase ZAP-70 (Homo sapiens) (UniProt P43403); test: % Activity remaining of ZAP70 in the Dundee kinase panel at 1.0 µM; conditions: Compound concentration 1.0 uM
[14] = biological target: 3-phosphoinositide-dependent protein kinase 1 (Homo sapiens) (UniProt O15530); test: % Activity remaining of PDK1 in the Dundee kinase panel at 1.0 µM; conditions: Compound concentration 1.0 uM
[15] = biological target: Ephrin type-B receptor 2 (Homo sapiens) (UniProt P29323); test: % Activity remaining of EPH-B2 in the Dundee kinase panel at 1.0 µM; conditions: Compound concentration 1.0 uM
[16] = biological target: Serine/threonine-protein kinase Sgk3 (Homo sapiens, UniProt Q96BR1); test: SGK3 radioactive filter binding assay using 33P ATP (Dundee kinase screen)
[17] = biological target: Phosphorylase b kinase regulatory subunit alpha, liver isoform (Homo sapiens) (UniProt P46019); test: % Activity remaining of PHK in the Dundee kinase panel at 1.0 µM; conditions: Compound concentration 1.0 uM
[18] = biological target: MAP kinase-interacting serine/threonine-protein kinase 2 (Homo sapiens) (UniProt Q9HBH9); test: % Activity remaining of MNK2 in the Dundee kinase panel at 1.0 µM; conditions: Compound concentration 1.0 uM
[19] = biological target: Calcium/calmodulin-dependent protein kinase type 1 (Homo sapiens) (UniProt Q14012); test: % Activity remaining of CAMK1 in the Dundee kinase panel at 1.0 µM; conditions: Compound concentration 1.0 uM
[20] = biological target: Serine/threonine-protein kinase ULK1 (Homo sapiens) (UniProt O75385); test: % Activity remaining of ULK1 in the Dundee kinase panel at 1.0 µM; conditions: Compound concentration 1.0 uM
[21] = biological target: Mitogen-activated protein kinase 12 (Homo sapiens) (UniProt P53778); test: % Activity remaining of p38 gamma MAPK in the Dundee kinase panel at 1.0 µM; conditions: Compound concentration 1.0 uM
[22] = biological target: Calcium/calmodulin-dependent protein kinase kinase 2 (Homo sapiens) (UniProt Q96RR4); test: % Activity remaining of CAMKK beta in the Dundee kinase panel at 1.0 µM; conditions: Compound concentration 1.0 uM
[23] = biological target: Eukaryotic translation initiation factor 2-alpha kinase 3 (Homo sapiens) (UniProt Q9NZJ5); test: % Activity remaining of EIF2AK3 in the Dundee kinase panel at 1.0 µM; conditions: Compound concentration 1.0 uM
[24] = biological target: Vascular endothelial growth factor receptor 1 (Homo sapiens) (UniProt P17948); test: % Activity remaining of VEGFR1 in the Dundee kinase panel at 1.0 µM; conditions: Compound concentration 1.0 uM
[25] = biological target: Homeodomain-interacting protein kinase 1 (Homo sapiens) (UniProt Q86Z02); test: % Activity remaining of HIPK1 in the Dundee kinase panel at 1.0 µM; conditions: Compound concentration 1.0 uM
[26] = biological target: Serine/threonine-protein kinase N2 (Homo sapiens) (UniProt Q16513); test: % Activity remaining of PRK2 in the Dundee kinase panel at 1.0 µM; conditions: Compound concentration 1.0 uM
[27] = biological target: Fibroblast growth factor receptor 1 (Homo sapiens) (UniProt P11362); test: % Activity remaining of FGF-R1 in the Dundee kinase panel at 1.0 µM; conditions: Compound concentration 1.0 uM
[28] = biological target: Dual specificity mitogen-activated protein kinase kinase 1 (Homo sapiens) (UniProt Q02750); test: % Activity remaining of MKK1 in the Dundee kinase panel at 1.0 µM; conditions: Compound concentration 1.0 uM
[29] = biological target: Mitogen-activated protein kinase 1 (Homo sapiens) (UniProt P28482); test: % Activity remaining of ERK2 in the Dundee kinase panel at 1.0 µM; conditions: Compound concentration 1.0 uM
[30] = biological target: High affinity nerve growth factor receptor (Homo sapiens) (UniProt P04629); test: % Activity remaining of TrkA in the Dundee kinase panel at 1.0 µM; conditions: Compound concentration 1.0 uM
[31] = biological target: NUAK family SNF1-like kinase 1 (Homo sapiens) (UniProt O60285); test: % Activity remaining of NUAK1 in the Dundee kinase panel at 1.0 µM; conditions: Compound concentration 1.0 uM
[32] = biological target: Mitogen-activated protein kinase 8 (Homo sapiens) (UniProt P45983); test: % Activity remaining of JNK1 in the Dundee kinase panel at 1.0 µM; conditions: Compound concentration 1.0 uM
[33] = biological target: Serine/threonine-protein kinase ULK2 (Homo sapiens) (UniProt Q8IYT8); test: % Activity remaining of ULK2 in the Dundee kinase panel at 1.0 µM; conditions: Compound concentration 1.0 uM
[34] = biological target: Insulin-like growth factor 1 receptor (Homo sapiens) (UniProt P08069); test: % Activity remaining of IGF-1R in the Dundee kinase panel at 1.0 µM; conditions: Compound concentration 1.0 uM
[35] = biological target: Dual specificity protein kinase CLK2 (Homo sapiens) (UniProt P49760); test: % Activity remaining of CLK2 in the Dundee kinase panel at 1.0 µM; conditions: Compound concentration 1.0 uM
[36] = biological target: Casein kinase I isoform delta (Homo sapiens) (UniProt P48730); test: % Activity remaining of CK1 delta in the Dundee kinase panel at 1.0 µM; conditions: Compound concentration 1.0 uM
[37] = biological target: Mitogen-activated protein kinase 3 (Homo sapiens) (UniProt P27361); test: % Activity remaining of ERK1 in the Dundee kinase panel at 1.0 µM; conditions: Compound concentration 1.0 uM
[38] = biological target: Tyrosine-protein kinase Lck (Homo sapiens) (UniProt P06239); test: % Activity remaining of Lck in the Dundee kinase panel at 1.0 µM; conditions: Compound concentration 1.0 uM

Sequence of Serine/threonine-protein kinase ULK2 (Homo sapiens) (Q8IYT8 whole entry): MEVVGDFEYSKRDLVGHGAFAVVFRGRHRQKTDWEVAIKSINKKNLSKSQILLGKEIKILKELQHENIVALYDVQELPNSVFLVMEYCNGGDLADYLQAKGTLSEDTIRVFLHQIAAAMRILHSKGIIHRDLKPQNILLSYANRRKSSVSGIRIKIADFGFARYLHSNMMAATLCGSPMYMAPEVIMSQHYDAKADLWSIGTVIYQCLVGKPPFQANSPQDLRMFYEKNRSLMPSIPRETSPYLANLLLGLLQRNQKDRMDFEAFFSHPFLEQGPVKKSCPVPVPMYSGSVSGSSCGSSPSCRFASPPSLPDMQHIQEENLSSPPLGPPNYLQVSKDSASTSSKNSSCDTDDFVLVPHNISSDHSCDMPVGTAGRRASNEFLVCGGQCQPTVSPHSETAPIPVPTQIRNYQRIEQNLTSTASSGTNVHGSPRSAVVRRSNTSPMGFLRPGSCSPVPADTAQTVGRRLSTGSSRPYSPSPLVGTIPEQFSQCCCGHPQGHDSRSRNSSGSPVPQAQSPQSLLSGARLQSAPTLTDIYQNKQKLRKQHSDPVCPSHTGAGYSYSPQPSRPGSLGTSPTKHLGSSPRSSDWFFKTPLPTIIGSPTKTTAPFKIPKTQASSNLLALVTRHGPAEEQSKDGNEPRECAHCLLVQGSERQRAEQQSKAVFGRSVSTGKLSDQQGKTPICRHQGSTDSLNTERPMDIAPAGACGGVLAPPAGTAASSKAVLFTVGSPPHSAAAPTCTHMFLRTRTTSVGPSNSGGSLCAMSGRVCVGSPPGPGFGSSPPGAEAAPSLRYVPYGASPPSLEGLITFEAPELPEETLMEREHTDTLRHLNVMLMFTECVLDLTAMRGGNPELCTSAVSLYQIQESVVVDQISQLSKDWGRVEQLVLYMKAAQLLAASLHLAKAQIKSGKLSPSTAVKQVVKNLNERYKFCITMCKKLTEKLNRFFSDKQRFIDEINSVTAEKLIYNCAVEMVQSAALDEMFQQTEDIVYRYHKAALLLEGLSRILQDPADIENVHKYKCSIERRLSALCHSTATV
Sequence of Mitogen-activated protein kinase 12 (Homo sapiens) (P53778 whole entry): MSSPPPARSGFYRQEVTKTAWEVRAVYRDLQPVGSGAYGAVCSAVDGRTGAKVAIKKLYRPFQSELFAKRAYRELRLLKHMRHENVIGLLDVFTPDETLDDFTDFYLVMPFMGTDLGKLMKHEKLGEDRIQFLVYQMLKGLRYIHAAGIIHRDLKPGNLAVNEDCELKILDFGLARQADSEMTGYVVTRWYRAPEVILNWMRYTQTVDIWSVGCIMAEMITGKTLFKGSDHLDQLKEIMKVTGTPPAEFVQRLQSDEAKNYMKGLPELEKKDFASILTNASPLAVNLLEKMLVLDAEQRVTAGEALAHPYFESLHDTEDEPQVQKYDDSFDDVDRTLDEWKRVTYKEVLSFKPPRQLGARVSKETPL
Sequence of Calcium/calmodulin-dependent protein kinase kinase 2 (Homo sapiens) (Q96RR4 2-588 limits assumed): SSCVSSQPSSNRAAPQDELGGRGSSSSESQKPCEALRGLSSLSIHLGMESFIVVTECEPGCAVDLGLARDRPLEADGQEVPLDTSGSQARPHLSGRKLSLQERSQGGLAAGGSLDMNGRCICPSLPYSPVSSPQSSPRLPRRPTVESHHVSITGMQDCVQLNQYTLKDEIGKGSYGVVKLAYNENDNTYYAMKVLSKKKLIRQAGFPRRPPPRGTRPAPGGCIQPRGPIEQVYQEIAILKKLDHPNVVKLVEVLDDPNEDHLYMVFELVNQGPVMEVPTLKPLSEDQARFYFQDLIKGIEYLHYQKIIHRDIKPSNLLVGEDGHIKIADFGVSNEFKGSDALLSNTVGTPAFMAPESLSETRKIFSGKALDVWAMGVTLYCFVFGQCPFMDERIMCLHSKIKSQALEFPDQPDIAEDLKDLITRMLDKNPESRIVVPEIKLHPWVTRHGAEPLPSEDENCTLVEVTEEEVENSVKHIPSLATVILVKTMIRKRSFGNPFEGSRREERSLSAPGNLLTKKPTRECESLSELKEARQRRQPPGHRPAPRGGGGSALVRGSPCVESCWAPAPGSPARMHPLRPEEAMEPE
Sequence of Mitogen-activated protein kinase 15 (Homo sapiens) (Q8TD08 whole entry): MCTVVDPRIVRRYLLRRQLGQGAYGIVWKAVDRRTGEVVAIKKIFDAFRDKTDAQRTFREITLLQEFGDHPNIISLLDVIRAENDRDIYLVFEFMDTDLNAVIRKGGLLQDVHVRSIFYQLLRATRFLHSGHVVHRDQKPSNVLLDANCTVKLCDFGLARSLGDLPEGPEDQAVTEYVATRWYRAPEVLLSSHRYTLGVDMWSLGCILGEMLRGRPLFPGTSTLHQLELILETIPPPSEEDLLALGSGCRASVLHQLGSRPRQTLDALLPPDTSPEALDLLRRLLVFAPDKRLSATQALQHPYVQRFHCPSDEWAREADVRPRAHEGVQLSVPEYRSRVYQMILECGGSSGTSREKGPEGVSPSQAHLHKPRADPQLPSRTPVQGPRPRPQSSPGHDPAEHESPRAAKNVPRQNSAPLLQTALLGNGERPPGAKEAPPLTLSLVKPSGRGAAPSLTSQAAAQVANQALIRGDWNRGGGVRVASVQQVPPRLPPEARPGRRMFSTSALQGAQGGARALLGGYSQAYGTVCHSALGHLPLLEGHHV
Sequence of Homeodomain-interacting protein kinase 1 (Homo sapiens) (Q86Z02 whole entry, looked up): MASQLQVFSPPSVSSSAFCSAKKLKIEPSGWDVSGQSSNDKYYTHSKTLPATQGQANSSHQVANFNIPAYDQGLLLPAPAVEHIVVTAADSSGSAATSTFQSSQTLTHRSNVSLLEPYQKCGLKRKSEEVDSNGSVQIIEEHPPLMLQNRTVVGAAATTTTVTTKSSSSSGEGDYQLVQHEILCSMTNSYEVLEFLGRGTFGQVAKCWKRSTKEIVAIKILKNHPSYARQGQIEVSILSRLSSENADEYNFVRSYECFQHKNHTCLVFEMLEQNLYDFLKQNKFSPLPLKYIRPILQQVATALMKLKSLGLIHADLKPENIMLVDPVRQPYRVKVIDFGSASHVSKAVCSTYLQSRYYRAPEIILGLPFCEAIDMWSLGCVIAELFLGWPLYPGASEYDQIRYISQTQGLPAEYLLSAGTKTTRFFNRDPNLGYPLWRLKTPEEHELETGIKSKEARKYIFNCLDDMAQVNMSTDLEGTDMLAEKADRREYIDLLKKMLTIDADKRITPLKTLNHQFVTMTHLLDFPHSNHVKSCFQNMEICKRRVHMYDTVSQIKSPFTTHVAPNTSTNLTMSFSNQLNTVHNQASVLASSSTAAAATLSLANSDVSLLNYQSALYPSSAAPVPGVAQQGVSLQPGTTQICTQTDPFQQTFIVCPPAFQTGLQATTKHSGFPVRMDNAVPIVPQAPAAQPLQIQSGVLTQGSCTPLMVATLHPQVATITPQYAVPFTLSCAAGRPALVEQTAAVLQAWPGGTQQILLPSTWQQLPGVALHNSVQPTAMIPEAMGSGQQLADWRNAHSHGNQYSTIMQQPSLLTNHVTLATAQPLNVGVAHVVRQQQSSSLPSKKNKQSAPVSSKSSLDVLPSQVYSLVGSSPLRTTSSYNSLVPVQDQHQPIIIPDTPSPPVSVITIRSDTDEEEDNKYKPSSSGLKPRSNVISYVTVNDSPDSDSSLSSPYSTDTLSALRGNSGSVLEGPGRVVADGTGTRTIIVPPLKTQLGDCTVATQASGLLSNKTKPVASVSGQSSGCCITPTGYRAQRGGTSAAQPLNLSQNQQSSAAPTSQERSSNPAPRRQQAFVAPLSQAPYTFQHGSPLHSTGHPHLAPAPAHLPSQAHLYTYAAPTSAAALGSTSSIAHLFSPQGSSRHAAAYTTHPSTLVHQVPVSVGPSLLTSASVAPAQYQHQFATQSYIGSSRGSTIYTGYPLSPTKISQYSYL
Sequence of Dual specificity mitogen-activated protein kinase kinase 1 (Homo sapiens) (Q02750 whole entry): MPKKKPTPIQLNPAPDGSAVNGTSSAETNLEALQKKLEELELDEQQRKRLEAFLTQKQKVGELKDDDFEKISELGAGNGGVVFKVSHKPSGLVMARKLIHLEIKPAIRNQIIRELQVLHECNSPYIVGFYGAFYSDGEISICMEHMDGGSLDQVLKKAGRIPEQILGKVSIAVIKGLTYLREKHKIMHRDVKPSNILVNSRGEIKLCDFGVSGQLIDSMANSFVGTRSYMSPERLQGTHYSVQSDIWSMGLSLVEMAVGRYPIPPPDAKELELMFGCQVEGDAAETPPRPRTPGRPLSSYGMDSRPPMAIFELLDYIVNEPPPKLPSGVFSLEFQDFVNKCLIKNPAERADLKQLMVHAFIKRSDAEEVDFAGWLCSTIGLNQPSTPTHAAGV
Sequence of Casein kinase I isoform delta (Homo sapiens) (P48730 whole entry, looked up, canonical isoform): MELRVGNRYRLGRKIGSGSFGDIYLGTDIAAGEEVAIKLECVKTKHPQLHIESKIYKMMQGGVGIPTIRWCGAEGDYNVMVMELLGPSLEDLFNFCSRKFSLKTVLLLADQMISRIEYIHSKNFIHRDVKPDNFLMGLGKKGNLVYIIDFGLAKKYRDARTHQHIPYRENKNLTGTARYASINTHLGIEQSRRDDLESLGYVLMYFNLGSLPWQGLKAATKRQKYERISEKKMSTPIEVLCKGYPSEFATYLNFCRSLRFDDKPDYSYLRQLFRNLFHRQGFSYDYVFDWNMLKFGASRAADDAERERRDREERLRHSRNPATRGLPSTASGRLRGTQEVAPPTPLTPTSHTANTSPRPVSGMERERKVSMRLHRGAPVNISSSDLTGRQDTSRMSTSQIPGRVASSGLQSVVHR
Sequence of Glycogen synthase kinase-3 beta (Homo sapiens) (P49841 whole entry, looked up): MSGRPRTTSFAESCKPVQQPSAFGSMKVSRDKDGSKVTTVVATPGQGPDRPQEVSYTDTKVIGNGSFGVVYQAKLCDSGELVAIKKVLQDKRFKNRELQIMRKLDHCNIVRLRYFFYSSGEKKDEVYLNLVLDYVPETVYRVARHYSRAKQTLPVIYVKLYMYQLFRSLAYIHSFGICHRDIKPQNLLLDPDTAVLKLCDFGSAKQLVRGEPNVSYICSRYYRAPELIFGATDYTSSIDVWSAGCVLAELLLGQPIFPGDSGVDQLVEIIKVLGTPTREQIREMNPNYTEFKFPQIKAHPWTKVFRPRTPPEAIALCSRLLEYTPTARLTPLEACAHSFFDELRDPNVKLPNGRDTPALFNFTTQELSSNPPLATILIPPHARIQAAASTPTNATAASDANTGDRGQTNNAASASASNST

Compound | % Activity remaining [1] | % Activity remaining [2] | % Activity remaining [3] | % Activity remaining [4] | % Activity remaining [5] | % Activity remaining [6] | % Activity remaining [7] | % Activity remaining [8] | % Activity remaining [9] | % Activity remaining [10] | % Activity remaining [11] | % Activity remaining [12] | % Activity remaining [13] | % Activity remaining [14] | % Activity remaining [15] | IC50 [16] | % Activity remaining [17] | % Activity remaining [18] | % Activity remaining [19] | % Activity remaining [20] | other results
Cc1ccc(F)c(S(=O)(=O)Nc2ccc(-c3nc(OC[C@H]4CN(CCCCCCOCCOCCOCC(=O)N[C@H](C(=O)N5C[C@H](O)C[C@H]5C(=O)NCc5ccc(-c6scnc6C)cc5)C(C)(C)C)CCO4)c4cn[nH]c4n3)cc2)c1 | 120% | 125% | 92% | 108% | 103% | 86.8% | 94.2% | 105% | 99% | 108% | 123% | 81.1% | 75% | 99.3% | 93.9% | 300 nM (active) | 113% | 122% | 86.3% | 116% | % Activity remaining [21]: 107%; % Activity remaining [22]: 98.9%; % Activity remaining [23]: 106%; % Activity remaining [24]: 120%; % Activity remaining [25]: 135%; % Activity remaining [26]: 105%; % Activity remaining [27]: 108%; % Activity remaining [28]: 106%; % Activity remaining [29]: 104%; % Activity remaining [30]: 112%; % Activity remaining [31]: 98%; % Activity remaining [32]: 117%; % Activity remaining [33]: 103%; % Activity remaining [34]: 82.4%; % Activity remaining [35]: 104%; % Activity remaining [36]: 95%; % Activity remaining [37]: 103%; % Activity remaining [38]: 124%
Cc1ccc(F)c(S(=O)(=O)Nc2ccc(-c3nc(OC[C@H]4CN(CCCCCCOCCOCCOCC(=O)N[C@H](C(=O)N5C[C@@H](O)C[C@H]5C(=O)NCc5ccc(-c6scnc6C)cc5)C(C)(C)C)CCO4)c4cn[nH]c4n3)cc2)c1 | 109% | 109% | 103% | 106% | 93.9% | 105% | 86.4% | 113% | 96.3% | 103% | 108% | 113% | 74.7% | 86.5% | 97.4% | 600 nM (not active) | 122% | 122% | 105% | 112% | % Activity remaining [21]: 127%; % Activity remaining [22]: 108%; % Activity remaining [23]: 111%; % Activity remaining [24]: 103%; % Activity remaining [25]: 126%; % Activity remaining [26]: 101%; % Activity remaining [27]: 106%; % Activity remaining [28]: 102%; % Activity remaining [29]: 95.2%; % Activity remaining [30]: 102%; % Activity remaining [31]: 90%; % Activity remaining [32]: 119%; % Activity remaining [33]: 117%; % Activity remaining [34]: 93.2%; % Activity remaining [35]: 84.8%; % Activity remaining [36]: 108%; % Activity remaining [37]: 101%; % Activity remaining [38]: 116%
